From US9694016B2 (Novartis AG, priority 2013, dated 2017) come the findings set out here.

b-Raf (V600E), sequence (P15056 whole entry V600E): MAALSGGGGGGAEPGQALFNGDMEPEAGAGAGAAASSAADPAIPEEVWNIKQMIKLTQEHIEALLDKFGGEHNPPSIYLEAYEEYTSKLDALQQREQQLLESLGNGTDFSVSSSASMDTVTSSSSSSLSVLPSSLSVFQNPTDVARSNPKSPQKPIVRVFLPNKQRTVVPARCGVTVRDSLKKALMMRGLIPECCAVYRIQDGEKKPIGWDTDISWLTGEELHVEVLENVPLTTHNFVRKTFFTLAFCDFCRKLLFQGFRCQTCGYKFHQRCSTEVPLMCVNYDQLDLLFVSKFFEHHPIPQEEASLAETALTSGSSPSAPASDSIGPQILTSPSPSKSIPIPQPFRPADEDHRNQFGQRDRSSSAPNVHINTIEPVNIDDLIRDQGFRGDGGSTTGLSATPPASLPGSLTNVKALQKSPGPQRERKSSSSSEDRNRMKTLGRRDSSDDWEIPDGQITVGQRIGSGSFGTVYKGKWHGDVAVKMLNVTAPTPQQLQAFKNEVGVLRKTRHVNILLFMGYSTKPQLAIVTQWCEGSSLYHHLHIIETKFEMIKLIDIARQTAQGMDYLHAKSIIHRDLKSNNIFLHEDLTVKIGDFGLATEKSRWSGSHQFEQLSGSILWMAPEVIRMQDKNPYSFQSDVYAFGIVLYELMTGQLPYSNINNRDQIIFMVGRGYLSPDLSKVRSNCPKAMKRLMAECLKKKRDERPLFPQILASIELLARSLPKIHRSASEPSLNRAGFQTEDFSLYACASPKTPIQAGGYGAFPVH

This experiment has as its target b-Raf (V600E) (Homo sapiens (Human), UniProt P15056, V600E). As to conditions: read-out: b-Raf IC-50; AlphaScreen, 60 min pre-incubation, reaction 3 hours at room temperature. (In Alpha technology, singlet oxygen from a donor bead excites a nearby acceptor bead.)
As to `Cc1ccc(NC(=O)c2ccnc(C3CC3)c2)cc1-c1cnc(OCCO)c(N2CCOCC2)c1` [Example 999, 2-cyclopropyl-N-(3-(6-(2-hydroxyethoxy)-5-morpholinopyridin-3-yl)-4-methylphenyl)isonicotinamide], the IC50 is 0.91 nM.

Turning to `Cc1ccc(NC(=O)c2ccnc(C(C)(F)F)c2)cc1-c1cnc(OCCO)c(N2CCOCC2)c1` [Example 1000, 2-(1,1-difluoroethyl)-N-(3-(6-(2-hydroxyethoxy)-5-morpholinopyridin-3-yl)-4-methylphenyl)isonicotinamide], the IC50 amounted to 2.15 nM.

As for `Cc1ccc(NC(=O)c2cncc(C(F)(F)F)c2)cc1-c1cnc(OCCO)c(N2CCOCC2)c1` [Example 1001, N-(3-(6-(2-hydroxyethoxy)-5-morpholinopyridin-3-yl)-4-methylphenyl)-5-(trifluoromethyl)nicotinamide], the IC50 was 1.36 nM.

On to `Cc1ccc(NC(=O)c2ccnc(C(F)(F)F)c2)cc1-c1cnc(OCCO)c(N2CCOCC2)c1` [Example 1002, N-(3-(6-(2-hydroxyethoxy)-5-morpholinopyridin-3-yl)-4-methylphenyl)-2-(trifluoromethyl)isonicotinamide], for which the IC50 turned out to be 1.75 nM.

Take `COC(=O)NC[C@@H](C)Oc1ncc(-c2cc(NC(=O)c3cccc(C(F)(F)F)c3)cnc2C)cc1N1CCOCC1` [Example 1003, (R)-methyl(2-((2′-methyl-5-morpholino-5′-(3-(trifluoromethyl)benzamido)-[3,3′-bipyridin]-6-yl)oxy)propyl)carbamate]: the IC50 was determined as 4.12 nM.

Turning to `Cc1ncc(NC(=O)c2cnnc(C(F)(F)F)c2)cc1-c1cc(NCCO)nc(N2CCOCC2)c1F` [Example 1004, N-(3′-fluoro-6′-((2-hydroxyethyl)amino)-2-methyl-2′-morpholino-[3,4′-bipyridin]-5-yl)-6-(trifluoromethyl)pyridazine-4-carboxamide], the IC50 amounted to 83.6 nM.

Regarding `Cc1ccc(NC(=O)c2ccnc(C(F)(F)F)c2)cc1-c1cc(N2CCOCC2)nc(NCCO)c1F` [Example 1006, N-(3-(3-fluoro-2-((2-hydroxyethyl)amino)-6-morpholinopyridin-4-yl)-4-methylphenyl)-2-(trifluoromethyl)isonicotinamide], the IC50 was 3.97 nM.

Turning to `Cc1ccc(NC(=O)c2cnnc(C(F)(F)F)c2)cc1-c1cc(N2CCOCC2)nc(NCCO)c1F` [Example 1007, N-(3-(3-fluoro-2-((2-hydroxyethyl)amino)-6-morpholinopyridin-4-yl)-4-methylphenyl)-6-(trifluoromethyl)pyridazine-4-carboxamide], the IC50 worked out at 5.38 nM.

Regarding `Cc1ccc(NC(=O)c2ccnc(C(F)(F)F)c2)cc1-c1cc(NCCO)nc(N2CCOCC2)c1F` [Example 1008, N-(3-(3-fluoro-6-((2-hydroxyethyl)amino)-2-morpholinopyridin-4-yl)-4-methylphenyl)-2-(trifluoromethyl)isonicotinamide], the IC50 stood at 13.3 nM.

With `Cc1ccc(NC(=O)c2ccnc(C(F)F)c2)cc1-c1cc(NCCO)nc(N2CCOCC2)c1F` [Example 1009, 2-(difluoromethyl)-N-(3-(3-fluoro-6-((2-hydroxyethyl)amino)-2-morpholinopyridin-4-yl)-4-methylphenyl)isonicotinamide], the IC50 was found to be 14.8 nM.

Take `Cc1ccc(NC(=O)c2ccnc(C(C)(C)O)c2)cc1-c1cc(NCCO)nc(N2CCOCC2)c1F` [Example 1010, N-(3-(3-fluoro-6-((2-hydroxyethyl)amino)-2-morpholinopyridin-4-yl)-4-methylphenyl)-2-(2-hydroxypropan-2-yl)isonicotinamide]: the IC50 amounted to 28.9 nM.

For the molecule `Cc1ccc(NC(=O)c2ccnc(C3(C#N)CC3)c2)cc1-c1cc(NCCO)nc(N2CCOCC2)c1F` [Example 1011, 2-(1-cyanocyclopropyl)-N-(3-(3-fluoro-6-((2-hydroxyethyl)amino)-2-morpholinopyridin-4-yl)-4-methylphenyl)isonicotinamide], the IC50 amounted to 24.5 nM.

For the molecule `Cc1ccc(NC(=O)c2cnnc(C(C)(C)C#N)c2)cc1-c1cc(NCCO)nc(N2CCOCC2)c1F` [Example 1012, 6-(2-cyanopropan-2-yl)-N-(3-(3-fluoro-6-((2-hydroxyethyl)amino)-2-morpholinopyridin-4-yl)-4-methylphenyl)pyridazine-4-carboxamide], the IC50 worked out at 70.6 nM.

Consider `Cc1ccc(NC(=O)c2cnnc(C(F)(F)F)c2)cc1-c1cc(NCCO)nc(N2CCOCC2)c1F` [Example 1013, N-(3-(3-fluoro-6-((2-hydroxyethyl)amino)-2-morpholinopyridin-4-yl)-4-methylphenyl)-6-(trifluoromethyl)pyridazine-4-carboxamide], for which the IC50 came out at 9.79 nM.

For `Cc1ccc(NC(=O)c2ccnc(C(F)(F)F)c2)cc1-c1c(F)c(NCCO)nc(N2CCOCC2)c1F` [Example 1014, N-(3-(3,5-difluoro-2-((2-hydroxyethyl)amino)-6-morpholinopyridin-4-yl)-4-methylphenyl)-2-(trifluoromethyl)isonicotinamide], the IC50 amounted to 12.8 nM.

`Cc1ccc(NC(=O)c2cnnc(C(F)(F)F)c2)cc1-c1c(F)c(NCCO)nc(N2CCOCC2)c1F` [Example 1015, N-(3-(3,5-difluoro-2-((2-hydroxyethyl)amino)-6-morpholinopyridin-4-yl)-4-methylphenyl)-6-(trifluoromethyl)pyridazine-4-carboxamide]: the IC50 was determined as 29.5 nM.

`Cc1ccc(NC(=O)c2ccnc(C(F)F)c2)cc1-c1cc(N2CCOCC2)nc(NCCO)c1F` [Example 1016, 2-(difluoromethyl)-N-(3-(3-fluoro-2-((2-hydroxyethyl)amino)-6-morpholinopyridin-4-yl)-4-methylphenyl)isonicotinamide]: the IC50 was 2.27 nM.

Consider `COc1nnc(-c2cc(C(=O)Nc3ccnc(C(F)(F)F)c3)ccc2C)cc1N1CCOCC1` [Example 1017, 3-(6-methoxy-5-morpholinopyridazin-3-yl)-4-methyl-N-(2-(trifluoromethyl)pyridin-4-yl)benzamide], for which the IC50 worked out at 0.98 nM.

Consider `COc1nnc(-c2cc(C(=O)Nc3ccnc(C(F)(F)F)c3)ccc2C)cc1N1CCOCC1` [Example 1018], for which the IC50 was determined as 1.76 nM.

Take `COc1nnc(-c2cc(C(=O)Nc3ccnc(C(C)(F)F)c3)ccc2C)cc1N1CCOCC1` [Example 1019, N-(2-(1,1-difluoroethyl)pyridin-4-yl)-3-(6-methoxy-5-morpholinopyridazin-3-yl)-4-methylbenzamide]: the IC50 was determined as 1.11 nM.

Consider `CCOc1nnc(-c2cc(C(=O)Nc3ccnc(C(C)(F)F)c3)ccc2C)cc1N1CCOCC1` [Example 1020, N-(2-(1,1-difluoroethyl)pyridin-4-yl)-3-(6-ethoxy-5-morpholinopyridazin-3-yl)-4-methylbenzamide], for which the IC50 was found to be 7.72 nM.

As to `Cc1ccc(NC(=O)c2ccnc(C(F)(F)F)c2)cc1-c1cc(NC[C@@H](C)O)nc(N2CCOCC2)n1` [Example 1023, (R)—N-(3-(6-((2-hydroxypropyl)amino)-2-morpholinopyrimidin-4-yl)-4-methylphenyl)-2-(trifluoromethyl)isonicotinamide], the IC50 stood at 2.32 nM.

Turning to `Cc1ccc(NC(=O)c2ccnc(C(C)(C)F)c2)cc1-c1cc(NC[C@@H](C)O)nc(N2CCOCC2)n1` [Example 1025, (R)-2-(2-fluoropropan-2-yl)-N-(3-(6-((2-hydroxypropyl)amino)-2-morpholinopyrimidin-4-yl)-4-methylphenyl)isonicotinamide], the IC50 turned out to be 12.7 nM.

Regarding `Cc1ccc(NC(=O)c2ccnc(C(C)(C)C#N)c2)cc1-c1cc(NC[C@@H](C)O)nc(N2CCOCC2)n1` [Example 1026, (R)-2-(2-cyanopropan-2-yl)-N-(3-(6-((2-hydroxypropyl)amino)-2-morpholinopyrimidin-4-yl)-4-methylphenyl)isonicotinamide], the IC50 was determined as 12.9 nM.

Regarding `CCOc1ccc(-c2cc(NC(=O)c3ccnc(C(C)(C)F)c3)cnc2C)nc1N1CCOCC1` [Example 1027, N-(5-ethoxy-2′-methyl-6-morpholino-[2,3′-bipyridin]-5′-yl)-2-(2-fluoropropan-2-yl)isonicotinamide], the IC50 was 8.48 nM.

`CCOc1ccc(-c2cc(NC(=O)c3ccnc(C(C)(F)F)c3)cnc2C)nc1N1CCOCC1` [Example 1028, 2-(1,1-difluoroethyl)-N-(5-ethoxy-2′-methyl-6-morpholino-[2,3′-bipyridin]-5′-yl)isonicotinamide]: the IC50 came out at 4.11 nM.

Regarding `Cc1ncc(NC(=O)c2cccc(C(F)(F)F)c2)cc1-c1cnc(OC2CCS(=O)(=O)CC2)c(N2CCOCC2)c1` [Example 1034, N-(6′-((1,1-dioxidotetrahydro-2H-thiopyran-4-yl)oxy)-2-methyl-5′-morpholino-[3,3′-bipyridin]-5-yl)-3-(trifluoromethyl)benzamide], the IC50 is 1.59 nM.

Consider `Cc1ccc(NC(=O)c2cccc(C(F)F)c2)cc1-c1cc(NCCO)nc(N2CCOCC2)c1` [Example 1036, 3-(difluoromethyl)-N-(3-(2-((2-hydroxyethyl)amino)-6-morpholinopyridin-4-yl)-4-methylphenyl)benzamide], for which the IC50 is 0.54 nM.

In the case of `Cc1ccc(NC(=O)c2ccnc(C(C)(F)F)c2)cc1-c1cc(NCCO)nc(N2CCOCC2)c1` [Example 1037, 2-(1,1-difluoroethyl)-N-(3-(2-((2-hydroxyethyl)amino)-6-morpholinopyridin-4-yl)-4-methylphenyl)isonicotinamide], the IC50 stood at 1.07 nM.

As to `Cc1ncc(NC(=O)c2cccc(C(F)F)c2)cc1-c1cc(NCCO)nc(N2CCOCC2)c1` [Example 1038, 3-(difluoromethyl)-N-(2′-((2-hydroxyethyl)amino)-2-methyl-6′-morpholino-[3,4′-bipyridin]-5-yl)benzamide], the IC50 amounted to 2.86 nM.

For `Cc1ncc(NC(=O)c2ccnc(C(F)F)c2)cc1-c1cc(NCCO)nc(N2CCOCC2)c1` [Example 1039, 2-(difluoromethyl)-N-(2′-((2-hydroxyethyl)amino)-2-methyl-6′-morpholino-[3,4′-bipyridin]-5-yl)isonicotinamide], the IC50 was 5.04 nM.

On to `Cc1ncc(NC(=O)c2ccnc(C(F)(F)F)c2)cc1-c1cc(NCCO)nc(N2CCOCC2)c1` [Example 1040, N-(2′-((2-hydroxyethyl)amino)-2-methyl-6′-morpholino-[3,4′-bipyridin]-5-yl)-2-(trifluoromethyl)isonicotinamide], for which the IC50 turned out to be 4.35 nM.
